Consider 15 compounds from ChEMBL document CHEMBL6114999, “Natural pyrrolo[1,2-a]quinazolinone derivatives: Design, synthesis, characterization, and bio-evaluation as novel antiviral agents” (Eur J Med Chem, 2025).

Series [1] relates to Enterovirus. Put plainly: Antiviral activity against EV71 infected in human RD cells assessed as protection from virus-induced cytopathogenicity incubated for 48 hrs by MTT assay. Type of series: functional, organism-based. Conditions: Enterovirus, 71, RD. Background: Protection from cytopathic effect is a common read-out in antiviral testing.
Series [2] is described as follows: Cytotoxicity against human RD cells incubated for 48 hrs by MTT assay. Type of series: toxicity, cell-based. A general note: Formazan colour is commonly taken as a measure of viable cells.
The nature of series [3]: Cytotoxicity against human HEp-2 cells incubated for 48 hrs by MTT assay. Format: toxicity, cell-based.
Series [4] in a line: Selectivity index, ratio of CC50 for cytotoxicity against human RD cells to EC50 for antiviral activity against EV71 infected in human RD cells. Type of series: toxicity, cell-based. Conditions: read-out: Ratio CC50/EC50.
In series [5] the test system is Enterovirus. Put plainly: Antiviral activity against EV71 infected in human RD cells assessed as inhibition of virus-induced cell death at 25 to 100 uM incubated for 48 hrs by MTT assay. Format: functional, organism-based. Conditions: 71, dose 25-100 µM.
Series [6] concerns Coxsackievirus B3. Description: Antiviral activity against CVB3 infected in HEp-2 cells assessed as inhibition of virus-induced cell death at 50 uM incubated for 48 hrs by MTT assay relative to control. Conditions: Enterovirus B. Format: functional.
The subject of series [7] is Enterovirus. Put plainly: Antiviral activity against EV71 infected in human RD cells assessed as inhibition of virus-induced cell death at 50 uM incubated for 48 hrs by MTT assay relative to control. Type of series: functional. Conditions: Enterovirus, 71, RD.
In series [8] the test system is Enterovirus. Put plainly: Antiviral activity against EV71 infected in human RD cells assessed as inhibition of virus-induced cell death at 25 uM incubated for 48 hrs by MTT assay relative to control. Format: functional. Conditions: Enterovirus, 71, RD.
For series [9], the system named is Enterovirus. Description: Antiviral activity against EV71 infected in human RD cells assessed as inhibition of virus-induced cell death at 100 uM incubated for 48 hrs by MTT assay relative to control. Format: functional, 71. Conditions: for inhibition at 100 µM: Enterovirus, 71, RD.
Series [10] has as its system Coxsackievirus B3. Put plainly: Antiviral activity against CVB3 infected in HEp-2 cells assessed as protection from virus-induced cytopathogenicity incubated for 48 hrs by MTT assay. Format: functional, organism-based. Conditions: Enterovirus B, HEp-2, 48 h.
Series [11] deals with Coxsackievirus B3. Description: Antiviral activity against CVB3 infected in HEp-2 cells assessed as inhibition of virus-induced cell death at 25 to 100 uM incubated for 48 hrs by MTT assay. Format: functional, organism-based. Conditions: dose 25-100 µM.
Series [12] has as its system Coxsackievirus B3. Description: Antiviral activity against CVB3 infected in HEp-2 cells assessed as inhibition of virus-induced cell death at 25 uM incubated for 48 hrs by MTT assay relative to control. Type of series: functional. Conditions: Enterovirus B.
The test system of series [13] is Coxsackievirus B3. Description: Antiviral activity against CVB3 infected in HEp-2 cells assessed as inhibition of virus-induced cell death at 100 uM incubated for 48 hrs by MTT assay relative to control. Conditions: for inhibition at 100 µM: Enterovirus B, HEp-2, 48 h. Type of series: functional.
A short description of series [14]: Selectivity index, ratio of CC50 for cytotoxicity against HEp-2 cells to EC50 for antiviral activity against CVB3 infected in HEp-2 cells. Type of series: toxicity, cell-based. Conditions: human, read-out: Ratio CC50/EC50.

Calls of active or inactive are those of the source. The calls are words filed in the database; no cut-off is given here.

As to `CC(NC(=O)C12CCC(=O)N1c1ccccc1C(=O)N2)c1ccccc1` (stereo not given), in series [1], the EC50 (in general, the concentration at which the effect is half-maximal) turned out to be 32.4 µM. Further, the CC50 (usually the concentration at which the toxic effect on the cells reaches its halfway point) at 48 h in series [2] is 256 µM; in series [3], 205 µM. The selectivity ratio in series [4] amounted to 7.9. Also, the inhibition – broadly, the change of the read-out against control, counted positive when it falls – in [5] is “Active”.
Take `CN1C(=O)c2ccccc2N2C(=O)CCC12C(=O)NCCS(C)(=O)=O` (stereo not given): the inhibition at 50 µM was 46.6% in series [6] and 56.7% in series [7]. Moreover, the CC50 at 48 h in series [2] worked out at 251 µM; in series [3], 205 µM. Besides, the inhibition at 25 µM in series [8] is 33%; in series [12] it was 38.9%. For the same compound, the inhibition at 100 µM in series [9] amounted to 62.3%; in [13], 55.2%. Also, the EC50 in series [10] is 64.5 µM. For the same compound, in series [11], the “antiviral activity call (active/inactive)” value is “Active”.
As to `CSCCNC(=O)C12CCC(=O)N1c1ccc(Cl)cc1C(=O)N2` (stereo not given), the values for the inhibition at 50 µM in series [6] and in [7] were 30.1% and 28.8%, respectively. Moreover, the EC50 in series [1] turned out to be 44.5 µM. In addition, the CC50 at 48 h in series [2] worked out at 269 µM; in [3] it was 315 µM. Also, the inhibition at 25 µM in [8] was 34.9%; in series [12], 20.3%. Also, the inhibition at 100 µM in series [9] was 26.2%; in series [13] it was 46.7%. In addition, the selectivity ratio in series [4] was found to be 6. Further, the inhibition result in series [5] was “Active”.
Regarding `CS(=O)(=O)CCNC(=O)C12CCC(=O)N1c1ccc(Cl)cc1C(=O)N2` (stereo not given), the inhibition at 50 µM in series [6] worked out at 24.3%; in series [7] it was 28%. Besides, the values for the CC50 at 48 h in series [2] and in [3] were 243 µM and 202 µM, respectively. The inhibition at 25 µM was determined as 33.8% in [8] and 12.2% in series [12]. In addition, the inhibition at 100 µM in series [9] is 22.8%; in series [13], 28.5%.
On to `CC(NC(=O)C12CCC(=O)N1c1ccc(Cl)cc1C(=O)N2)c1ccccc1` (stereo not given), for which the inhibition at 50 µM in [6] is 31.5%; in series [7], 53.3%. Moreover, the EC50 was found to be 29.4 µM in [1] and 103 µM in [10]. In addition, the CC50 at 48 h turned out to be 270 µM in series [2] and 239 µM in [3]. The inhibition at 25 µM in [8] amounted to 44.4%; in series [12] it was 16%. Further, the figures for the inhibition at 100 µM in series [9] and in series [13] were 71.7% and 47.9%, respectively. The selectivity ratio in series [14] amounted to 2.3; in series [4], 9.2. Besides, the “antiviral activity call (active/inactive)” value in [11] is “Active”. Further, the inhibition result in [5] is “Active”.
Take `COc1cc(CNC(=O)C23CCC(=O)N2c2ccccc2C(=O)N3)ccc1O` (stereo not given): the inhibition at 50 µM in series [6] came to 56.6%; in series [7], 85.9%. Further, the cytotoxic concentration (CC50) at 48 h in series [2] was determined as 264 µM; in [3] it was 238 µM. In addition, the values for the inhibition at 25 µM in series [8] and in series [12] were 64.3% and 42.2%, respectively. For the same compound, the Imax in series [9] was found to be 91.33%. The results for the inhibition at 100 µM in series [9] and in [13] were 91.3% and 82.4%, respectively. Further, the selectivity ratio in series [14] came out at 6.6. In [10], the EC50 is 35.8 µM. Also, the “antiviral activity call (active/inactive)” value in [11] was “Active”. The “inhibition (INH)” value in series [13] (48 h, 100 µM) amounted to 82.4%.
For the compound `O=C1NC2(C(=O)NCCc3c[nH]c4ccccc34)CCC(=O)N2c2ccccc21` (stereo not given), the inhibition at 50 µM was 44.4% in [6] and 73.1% in [7]. For the same compound, the concentration giving a half-maximal response (EC50) in series [1] worked out at 18.6 µM; in [10] it was 65.8 µM. In addition, the CC50 at 48 h came to 208 µM in series [2] and 185 µM in series [3]. In addition, the inhibition at 25 µM came out at 64.1% in series [8] and 28.9% in series [12]. Besides, the inhibition at 100 µM turned out to be 67% in series [9] and 62.1% in [13]. Also, the selectivity ratio came to 2.8 in series [14] and 11.2 in series [4]. The “antiviral activity call (active/inactive)” value in [11] was “Active”. In addition, the inhibition entry in series [5] was “Active”.
For the compound `COc1cc(CNC(=O)C23CCC(=O)N2c2ccccc2C(=O)N3C)ccc1O` (stereo not given), the CC50 at 48 h was 243 µM in series [2] and 251 µM in series [3]. Moreover, the “antiviral activity call (active/inactive)” value in series [11] was “Active”.
Consider `CS(=O)(=O)CCNC(=O)C12CCC(=O)N1c1ccccc1C(=O)N2` (stereo not given), for which the inhibition at 50 µM in series [6] turned out to be 6.5%; in series [7] it was 3.2%. Moreover, the CC50 at 48 h worked out at 262 µM in [2] and 176 µM in series [3]. The inhibition at 25 µM in series [8] turned out to be 2%; in series [12], 3.6%. The inhibition at 100 µM was 1.6% in series [9] and 11.9% in [13]. For the same compound, the selectivity ratio in series [14] worked out at 3.2.
Consider `COC(=O)C(CCSC)NC(=O)C12CCC(=O)N1c1ccccc1C(=O)N2` (stereo not given), for which the inhibition at 50 µM in series [6] was determined as 21.7%; in series [7], 5%. Moreover, the CC50 at 48 h came to 245 µM in series [2] and 212 µM in series [3]. Besides, the inhibition at 25 µM in series [8] stood at 6.1%; in series [12], 13.3%. Moreover, the inhibition at 100 µM in series [9] was found to be 4.8%; in series [13] it was 27.9%.
As to `COC(=O)C(CCSC)NC(=O)C12CCC(=O)N1c1ccc(Cl)cc1C(=O)N2` (stereo not given), the inhibition at 50 µM worked out at 49.9% in [6] and 58.8% in [7]. Further, the EC50 in series [1] came to 53.4 µM; in [10], 60.1 µM. Also, the CC50 at 48 h in [2] was 235 µM; in series [3], 214 µM. The inhibition at 25 µM in series [8] worked out at 50.3%; in series [12], 29.8%. Also, the inhibition at 100 µM was determined as 58.7% in series [9] and 58.8% in [13]. The “antiviral activity call (active/inactive)” value in series [11] is “Active”. Besides, in [4], the selectivity ratio turned out to be 4.4. Also, the inhibition entry in series [5] was “Active”.
`COC(=O)C(CCSC)NC(=O)C12CCC(=O)N1c1ccccc1C(=O)N2C` (stereo not given): the inhibition at 50 µM in series [6] came out at 20.2%; in series [7] it was 6.2%. Moreover, the figures for the CC50 at 48 h in [2] and in series [3] were 252 µM and 200 µM, respectively. The inhibition at 25 µM came to 3.2% in series [8] and 20.8% in series [12]. Also, the values for the inhibition at 100 µM in [9] and in series [13] were 1.3% and 27.3%, respectively. In addition, the selectivity ratio in series [14] amounted to 3.6.
Turning to `CSCCNC(=O)C12CCC(=O)N1c1ccccc1C(=O)N2` (stereo not given), the inhibition at 50 µM worked out at 12.3% in series [6] and 7.3% in [7]. Besides, the CC50 at 48 h in series [2] was found to be 288 µM; in series [3] it was 210 µM. The inhibition at 25 µM is 5.7% in series [8] and 7.9% in series [12]. For the same compound, the inhibition at 100 µM was 3.9% in series [9] and 26.9% in series [13].
With `CSCCNC(=O)C12CCC(=O)N1c1ccccc1C(=O)N2C` (stereo not given), the results for the inhibition at 50 µM in series [6] and in [7] were 24.4% and 13.7%, respectively. In addition, the CC50 at 48 h in series [2] stood at 278 µM; in series [3], 238 µM. The figures for the inhibition at 25 µM in series [8] and in series [12] were 6.6% and 20.7%, respectively. Further, the inhibition at 100 µM in [9] was 7.9%; in series [13], 32.1%.
As for `CC(NC(=O)C12CCC(=O)N1c1ccccc1C(=O)N2C)c1ccccc1` (stereo not given), the results for the CC50 at 48 h in series [2] and in [3] were 234 µM and 223 µM, respectively.
